Data taken from article PMC8453635, “Piperidine Azasugars Bearing Lipophilic Chains: Stereoselective Synthesis and Biological Activity as Inhibitors of Glucocerebrosidase (GCase)” (The Journal of Organic Chemistry, 2021).

Legend:
α-galactosidase = molecular target: T1, α-galactosidase (Homo sapiens, UniProt P06280); assay: Human lysosomal glycosidase selectivity screening (leukocyte homogenate); type: biochemical; settings: 1 mM, read-out: percentage of inhibition, α-Gal
T1 construct: from leukocytes isolated from healthy donors (controls); from tissue; host or cells: leukocytes from healthy donors, sonicated homogenate
T1 sequence (P06280 32-429): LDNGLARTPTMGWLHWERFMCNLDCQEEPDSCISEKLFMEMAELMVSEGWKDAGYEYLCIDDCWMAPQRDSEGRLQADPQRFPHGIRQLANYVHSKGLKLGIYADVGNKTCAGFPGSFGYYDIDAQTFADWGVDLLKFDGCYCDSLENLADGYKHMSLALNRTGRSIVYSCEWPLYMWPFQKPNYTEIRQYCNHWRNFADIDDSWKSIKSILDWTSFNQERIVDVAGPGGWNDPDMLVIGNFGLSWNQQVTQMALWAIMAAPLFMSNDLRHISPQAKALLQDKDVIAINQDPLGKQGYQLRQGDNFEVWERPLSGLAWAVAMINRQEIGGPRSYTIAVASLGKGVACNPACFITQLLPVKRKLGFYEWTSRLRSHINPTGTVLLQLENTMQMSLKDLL
Description: (§1) In order to avoid undesired inhibitory side effects of a potential new drug, it has to be selective for a given target. The selectivity of the newly synthesized compounds 14, 15, and 33·HCl toward GCase was then investigated, evaluating their inhibition at 1 mM concentration toward six other lysosomal glycosidases (namely, α-and β-mannosidases, α- and β-galactosidases, α-fucosidase, and α-glucosidase) in cell homogenates (leucocytes or lymphocytes) isolated from healthy donors. […] Indeed, only moderate inhibitory activity (ca. 50%) was found toward human β-galactosidase for both piperidines 14 and 15, while negligible inhibitory activity was detected in all other cases.
The effect of 1 mM concentration of 14, 15, and 33·HCl was assayed toward six lysosomal glycosidases other than GCase, namely, α-mannosidase, β-mannosidase, α-galactosidase, β-galactosidase, α-fucosidase from leukocytes isolated from healthy donors (controls) and α-glucosidase from lymphocytes isolated from healthy donors’ flesh blood (controls). […]
μL, Sigma –Aldrich) in acetate buffer (0.1 M, pH 4.5) containing sodium azide (0.02%) were incubated at 37 °C for 1 h. Th e reaction was stopped by addition of sodium carbonate (200 μL; 0.5M, pH 10.7) containing Triton X -100 (0.0025 %), and the fluorescence 4 -methylumbelliferone released by α-galactosidase activity was measured in SpectraMax M2 microplate reader ( λex=365 nm, λem=435 nm; Molecular Devices). […]
α-Fucosidase activity was measured in a flat -bottomed 96 -well plate. […]
α-Glucosidase activity was measured in a flat –bottomed 96 well plate. […] The reaction was stopped by the addition of a solution of sodium carbonate (200 µL; 0.5M, pH 10.7) containing Triton X -100 (0.0025 %), and the fluorescence of 4 -methylumbelliferone released by α-glucosidase activity was measured in […]
Figure S 48. […] The corresponding calculated percentage of inhibition is indicated above each bar.

β-mannosidase = molecular target: T2, β-mannosidase (Homo sapiens, UniProt O00462); assay: as above; type: biochemical; settings: 1 mM, read-out: percentage of inhibition, β-Man
T2 construct: from leukocytes isolated from healthy donors (controls); from tissue; host or cells: leukocytes from healthy donors, sonicated homogenate
T2 sequence (O00462 18-879): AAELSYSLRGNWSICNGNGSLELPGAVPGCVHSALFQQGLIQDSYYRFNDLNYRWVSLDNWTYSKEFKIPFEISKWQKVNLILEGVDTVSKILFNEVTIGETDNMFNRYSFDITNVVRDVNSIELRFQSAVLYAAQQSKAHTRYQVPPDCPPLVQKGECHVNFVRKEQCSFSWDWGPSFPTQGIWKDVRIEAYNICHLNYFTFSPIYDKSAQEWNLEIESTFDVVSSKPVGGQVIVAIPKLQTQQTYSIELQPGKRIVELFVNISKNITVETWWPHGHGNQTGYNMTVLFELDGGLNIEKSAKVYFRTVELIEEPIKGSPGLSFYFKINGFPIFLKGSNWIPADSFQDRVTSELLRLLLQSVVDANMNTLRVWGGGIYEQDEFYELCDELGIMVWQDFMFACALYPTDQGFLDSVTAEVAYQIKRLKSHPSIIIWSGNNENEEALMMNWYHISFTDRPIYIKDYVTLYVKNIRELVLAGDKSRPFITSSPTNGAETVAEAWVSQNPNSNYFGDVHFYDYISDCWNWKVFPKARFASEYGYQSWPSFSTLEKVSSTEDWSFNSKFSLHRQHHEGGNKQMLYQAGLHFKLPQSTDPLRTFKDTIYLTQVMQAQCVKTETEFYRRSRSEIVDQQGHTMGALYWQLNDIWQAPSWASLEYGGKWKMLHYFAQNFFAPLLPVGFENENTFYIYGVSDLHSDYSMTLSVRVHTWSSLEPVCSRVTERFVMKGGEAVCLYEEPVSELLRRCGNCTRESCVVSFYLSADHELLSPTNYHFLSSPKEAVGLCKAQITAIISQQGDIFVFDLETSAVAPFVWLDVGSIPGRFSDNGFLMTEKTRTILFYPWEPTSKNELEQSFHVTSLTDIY
Description: as §1
(§2) The effect of 1 mM concentration of 14, 15, and 33·HCl was assayed toward six lysosomal glycosidases other than GCase, namely, α-mannosidase, β-mannosidase, α-galactosidase, β-galactosidase, α-fucosidase from leukocytes isolated from healthy donors (controls) and α-glucosidase from lymphocytes isolated from healthy donors’ flesh blood (controls). Isolated leukocytes or lymphocytes were disrupted by sonication, and a micro BCA protein assay kit (Sigma-Aldrich) was used to determine the total protein amount for the enzymatic assay, according to the manufacturer’s instructions (for more details, see the Supporting Information section).
Selectivity of compounds 14, 15 and 33.HCl towards lysosomal enzymes.
as §2, with “15” for “15,”, “33.HCl” for “33·HCl”, “towards” for “toward”, “namely:” for “namely,”, “(Sigma–Aldrich)” for “(Sigma-Aldrich)”, “manufacturer instructions. […]” for “manufacturer’s instructions (for more details, see the Supporting Information section).”
Molecular Devices). Inhibition is given with respect to the control (without azasugar). Data are mean SD (n=3). […]
Inhibition is given with respect to the control (without azasugar). Data are mean SD (n=3). […]
(1 picture or pasted object on this page, not shown here) […]
α-Fucosidase activity was measured in a flat -bottomed 96 -well plate. Azasugar solution (3 μL), 4.29 μg/μL leukocytes homogenate 1:3 (7 μL), and substrate 4 -methylumbe lliferyl α-L-fucopyranoside (1.51 mM, 20 μL, Sigma –Aldrich) in Na phosphate/citrate buffer (0.2:0.1, M/M, pH 5.5) were incubated at 37 °C for 1 h. […]
Data are mean SD (n=3). S74 […]
α-Glucosidase activity was measured in a flat –bottomed 96 well plate. Azasugar solution (3 µL), 4.29 µg/µL lymphocytes homogenate (7µL) and 20 µL of substrate solution of 4 -methylumbelliferyl -α-D-glucopyranoside (Sigma -Aldrich) in Na a cetate buffer (0.2 M, pH 4.0) were incubated for 1 h at 37 °C. The reaction was stopped by the addition of a solution of sodium carbonate (200 µL; 0.5M, pH 10.7) containing Triton X -100 (0.0025 %), and the fluorescence of 4 -methylumbelliferone released by α-glucosidase activity was measured in […]
respect to the control (without azasugar). Data are means of 3 values. […]
Figure S 48. Activity of a panel of 6 hu man lysosomal glycosidases in the presence of compounds 14, 15 and 33.HCl (1 mM ). The corresponding calculated percentage of inhibition is indicated above each bar.

| Compound | inhibition at 1000 µM (α-galactosidase) | inhibition at 1000 µM (β-mannosidase) |
| --- | --- | --- |
| CCCCCCCC[C@@H]1[C@@H](O)[C@H](O)[C@H](O)CN1C(CCCCCCC)CCCCCCC.Cl [compound 33·HCl, (2R,3R,4R,5R)-2-Octyl-1-(pentadecan-8-yl)-piperidine-3,4,5-triol Hydrochloride] | 1% | 2% |
| CCCCCCCC[C@@H]1[C@@H](O)[C@H](O)[C@H](O)CN1CCCCCCCC [compound 15, (2R,3R,4R,5R)-1,2-Dioctylpiperidine-3,4,5-triol] | 8% | 1% |
| CCCCCCCC[C@H]1[C@@H](O)[C@H](O)[C@H](O)CN1CCCCCCCC [compound 14, (2S,3R,4R,5R)-1,2-Dioctylpiperidine-3,4,5-triol] | 9% | 0% |
